Data as given in patent US11883391B2, “Compositions and methods for treating inflammatory bowel disease using CCR9 inhibitor and anti-IL-23 blocking antibodies” (ChemoCentryx, Inc., priority 2020, dated 2024).

Columns and labels:
FVBMDR1a(−/−) mice = experiment: 21 Day Piroxicam-Accelerated MDR1a−/− Model Of Colitis: colon weight-to-length ratio; type: in vivo; conditions: combined therapy with anti-IL-23; only the combined therapy significantly improved the W:L ratio
From the text: Mice of the FVB strain lacking a functional MDR1 gene (also known as ABCB1, P-gp or CD243) develop a spontaneous infammatory bowel disease. This disease can be accelerated by adding the drug piroxicam to their food. FVB mice bearing a functional MDR1 gene are resistant to this disease.
Piroxicam is included in the mouse food for ten days, and the health of the mouse is monitored for a total of 21 days both during and after the piroxicam feeding. Symptoms monitored during this time include severity of diarrhea and changes in body weight.
The colon inflammation manifests itself as a thickening of the colon wall and shortening of the colon itself. The severity of the disease can thus be assessed via the ratio of the colon's weight to its length.
The mice used were female 6 week old FVBMDR1a(+/+) and FVBMDR1a(−/−). Mice were normalized for body weight (BW) upon reaching 7 weeks of age, at which time their diet was switched to powdered chow containing piroxicam for a total of 10 days. BW and diarrhea score was monitored for 21 days (including the 10 days of piroxicam feeding). Blood was taken for trough compound levels on day 3 and at takedown. Rat IgG levels (anti-IL23 or isotype-matched control) were quantitated by ELISA on terminal blood draw. At takedown, colons were photographed and weight/length ratio calculated. […]

[1] = Trough plasma concentration of compound on day 3 (LC-MS) in the piroxicam-accelerated colitis study; type: in vivo, mice; conditions: trough after the 3rd day of dosing, Compound 1 90 mg/kg SC BID, Compound 2 30 mg/kg SC QD, FIG. 1
From the text: The mice used were female 6 week old FVBMDR1a(+/+) and FVBMDR1a(−/−). Mice were normalized for body weight (BW) upon reaching 7 weeks of age, at which time their diet was switched to powdered chow containing piroxicam for a total of 10 days. BW and diarrhea score was monitored for 21 days (including the 10 days of piroxicam feeding). Blood was taken for trough compound levels on day 3 and at takedown. Rat IgG levels (anti-IL23 or isotype-matched control) were quantitated by ELISA on terminal blood draw. At takedown, colons were photographed and weight/length ratio calculated. Two colons from each group were formaldehyde fixed for future pathology assessment and disease scoring. Remaining colons from each group were dissociated for flow cytometry analysis of infiltrating immune cells.
Compound 1 was dosed at 90 mg/kg in 10% Cremophor-EL, SC, BID, and Compound 2 was dosed at 30 mg/kg in 1% HPMC, SC, QD. Vehicle 1 was 10% Cremophor-EL and was administered SC, BID. Vehicle 2 was 1% HPMC administered SC, QD. Anti-mouse IL-23 Clone G23-8 (Rat IgG1) was dosed at 300 μg/mouse, QD/QOD; Isotype-matched control Clone HRPN (Rat IgG1) was dosed at 300 μg/mouse, QD/QOD.
Blood was taken at trough from all Compound 1- and Compound 2-dosed mice, and plasma analyzed by Liquid Chromatography-Mass Spectroscopy to determine the concentration. Trough blood was taken after the 3rd day of dosing (FIG. 1).

| SMILES | synergy with anti-IL-23 to improve colon inflammation (W:L ratio) (FVBMDR1a(−/−) mice) | Trough plasma concentration vs minimal concentration established for 98% receptor coverage [1] |
| --- | --- | --- |
| Cc1cc(NS(=O)(=O)c2ccc(C(C)(C)C)c(F)c2)n(-c2cccc3nc(N)ccc23)n1 [Compound 2] | synergized | met or exceeded the minimal concentration established for 98% receptor coverage |
| CC(C)(C)c1ccc(S(=O)(=O)Nc2ccc(Cl)cc2C(=O)c2cc[n+]([O-])cc2)cc1 [Compound 1] | synergized | met or exceeded the minimal concentration established for 98% receptor coverage |
